Experimental findings from ChEMBL document CHEMBL3813638, “Investigation of the apoptotic pathway induced by benzimidazole-oxindole conjugates against human breast cancer cells MCF-7” (Bioorg Med Chem Lett, 2016) are described below.

Experiment [1] relates to MCF7. The experiment can be described thus: Induction of apoptosis in human MCF7 cells assessed as necrotic cells at 1 uM after 24 hrs by Annexin V-FITC/PI dual staining based flow cytometry (reference value: 0.1%). It counts as functional.
Another experiment relates to Vero. Kind of experiment: Cytotoxicity against African green monkey Vero cells assessed as cell growth inhibition after 48 hrs by MTT assay. The class given is cell-based. The settings on record: Chlorocebus sabaeus.
Experiment [2] deals with MCF7. Kind of experiment: Induction of apoptosis in human MCF7 cells assessed as increase in Bax expression after 48 hrs by Western blot analysis. The class given is functional, cell-based. (Immunoblotting shows a protein as a band on a membrane.)
The next experiment deals with HEK293. The experiment can be described thus: Cytotoxicity against human HEK293 cells assessed as cell growth inhibition after 48 hrs by MTT assay. The class given is cell-based. The settings on record: HEK293, 48 h.
Experiment [3] relates to MCF7. Kind of experiment: Disruption of mitochondrial membrane potential in human MCF7 cells assessed as cells with vital and intact mitochondrial membrane at 1 uM after 48 hrs by JC-1 staining based flow cytometry (reference value: 94%). It counts as functional.
Experiment [4] deals with MCF7. The experiment can be described thus: Induction of apoptosis in human MCF7 cells assessed as increase in PARP 89 KDa cleavage at 1 to 2 uM after 48 hrs by Western blot analysis. It counts as functional, cell-based.
Experiment [5] deals with MCF7. Kind of experiment: Induction of apoptosis in human MCF7 cells assessed as increase in cytochrome c levels at 1 to 2 uM after 48 hrs by Western blot analysis. It counts as functional, cell-based.
Experiment [6] relates to MCF7. The experiment can be described thus: Induction of apoptosis in human MCF7 cells assessed as necrotic cells at 2 uM after 24 hrs by Annexin V-FITC/PI dual staining based flow cytometry (reference value: 0.1%). It counts as functional.
For experiment [7], the system named is MCF7. The experiment can be described thus: Induction of apoptosis in human MCF7 cells assessed as suppression of Bcl-2 expression after 48 hrs by Western blot analysis. The class given is functional, cell-based.
For experiment [8], the system named is MCF7. Kind of experiment: Induction of apoptosis in human MCF7 cells assessed as viable cells at 2 uM after 24 hrs by Annexin V-FITC/PI dual staining based flow cytometry (reference value: 94.9%). It counts as functional. The settings on record: MCF7, 24 h, read-out: Activity. (A flow cytometer gives signals particle by particle.)
The test system of experiment [9] is MCF7. The experiment can be described thus: Cytotoxicity against human MCF7 cells. The class given is functional, cell-based.
Experiment [10] concerns MCF7. Kind of experiment: Induction of apoptosis in human MCF7 cells assessed as viable cells at 1 uM after 24 hrs by Annexin V-FITC/PI dual staining based flow cytometry (reference value: 94.9%). The class given is functional. The settings on record: MCF7, 24 h, read-out: Activity.
The subject of experiment [11] is MCF7. Kind of experiment: Induction of ROS generation in human MCF7 cells at 2 uM after 48 hrs by DCFDA fluorescent probe based flow cytometry (reference value: 5.3%). The class given is functional.
For experiment [12], the system named is MCF7. The experiment can be described thus: Induction of apoptosis in human MCF7 cells assessed as increase in caspase-9 activation at 1 to 2 uM after 48 hrs by Western blot analysis. It counts as functional, cell-based.
Experiment [13] has as its system MCF7. Kind of experiment: Induction of apoptosis in human MCF7 cells assessed as early apoptotic cells at 1 uM after 24 hrs by Annexin V-FITC/PI dual staining based flow cytometry (reference value: 3.5%). It counts as functional.
The test system of experiment [14] is MCF7. Kind of experiment: Induction of ROS generation in human MCF7 cells at 1 uM after 48 hrs by DCFDA fluorescent probe based flow cytometry (reference value: 5.3%). The class given is functional.
In experiment [15] the test system is MCF7. Kind of experiment: Disruption of mitochondrial membrane potential in human MCF7 cells assessed as cells with vital and intact mitochondrial membrane at 2 uM after 48 hrs by JC-1 staining based flow cytometry (reference value: 94%). The class given is functional.
The subject of experiment [16] is MCF7. Kind of experiment: Induction of apoptosis in human MCF7 cells assessed as late apoptotic cells at 1 uM after 24 hrs by Annexin V-FITC/PI dual staining based flow cytometry (reference value: 1.5%). It counts as functional.
Experiment [17] relates to MCF7. The experiment can be described thus: Induction of apoptosis in human MCF7 cells assessed as late apoptotic cells at 2 uM after 24 hrs by Annexin V-FITC/PI dual staining based flow cytometry (reference value: 1.5%). The class given is functional.
Experiment [18] relates to MCF7. Kind of experiment: Induction of apoptosis in human MCF7 cells assessed as early apoptotic cells at 2 uM after 24 hrs by Annexin V-FITC/PI dual staining based flow cytometry (reference value: 3.5%). The class given is functional.

Active and inactive are the calls of the source. The rule behind the calls is not given here.

Take `COc1ccc(-c2nc3ccc(/C=C4\C(=O)Nc5ccc(Cl)cc54)cc3[nH]2)cc1`: the Activity in the experiment with MCF7 [1] was 1.6%; in the experiment with MCF7 [2] it was “Dose-dependent effect”; in the experiment with MCF7 [3], 80.7%; in the experiment with MCF7 [6], 1.1%; in the experiment on MCF7 [7], “Dose-dependent effect”; in the experiment on MCF7 [11], 33.8%. Moreover, the Activity was 26.3% with MCF7 [13]; 21.9% in the experiment on MCF7 [14]; 57.7% with MCF7 [15]; 31.3% in the experiment with MCF7 [16]; 36.5% in the experiment with MCF7 [17]; 35.4% with MCF7 [18]. Further, the IC50 with Vero was 109 µM; with HEK293, 170 µM; in the experiment with MCF7 [9], 1.84 µM. The outcome in the experiment on MCF7 [4], in the experiment on MCF7 [5] and with MCF7 [12] was Active. Also, in the experiment on MCF7 [8], the viability at 2 µM is 27%. Besides, the viability at 1 µM with MCF7 [10] came out at 40.7%.
Turning to `O=C1Nc2cc(Cl)ccc2/C1=C/c1ccc2nc(-c3cc(F)cc(F)c3)[nH]c2c1`, the Activity with MCF7 [1] is 1.8%; with MCF7 [2], “Dose-dependent effect”; in the experiment with MCF7 [3] it was 83.1%; in the experiment with MCF7 [6] it was 1.2%; with MCF7 [7], “Dose-dependent effect”; in the experiment with MCF7 [11], 30%. The Activity in the experiment on MCF7 [13] came to 32.5%; with MCF7 [14], 20.3%; in the experiment with MCF7 [15], 61.8%; in the experiment on MCF7 [16], 23.4%; with MCF7 [17] it was 34.9%; in the experiment on MCF7 [18], 33%. Moreover, the half-maximal inhibitory concentration (IC50) with Vero worked out at 97.9 µM; with HEK293, 147 µM; in the experiment on MCF7 [9] it was 1.97 µM. The result with MCF7 [4], with MCF7 [5] and with MCF7 [12] was Active. In addition, in the experiment on MCF7 [8], the viability at 2 µM worked out at 31%. Moreover, in the experiment with MCF7 [10], the viability at 1 µM worked out at 42.3%.

As usually defined, the IC50 is the concentration that gives 50% inhibition.
